This assay deals with SARS-CoV-2 strain USA-WA1/2020. As to the kind of experiment: microbe, parasite or virus in culture. Type of assay: cell-based. The following applies: Severe acute respiratory syndrome coronavirus 2, HeLa-ACE2, 24 h, HeLa-ACE2 cells, SARS-CoV-2 infection, 24 h; read-out: EC50, uM (Hela).
Usually EC50 stands for the concentration needed to bring the measured effect to its halfway point. Regarding `O=C1NCC[C@H]1C[C@H](NC(=O)[C@@H]1CC2(CC2)CN1C(=O)[C@H](O)c1ccc(F)cc1)C(=O)COC(F)(F)F` [Compound 403, (S)-5-((R)-2-(4-fluorophenyl)-2-hydroxyacetyl)-N-((S)-3-oxo-1-((S)-2-oxopyrrolidin-3-yl)-4-(trifluoromethoxy)butan-2-yl)-5-azaspiro[2.4]heptane-6-carboxamide], the EC50 was in the range of 0.05 to 0.2 µM. The result for `O=C1NCC[C@H]1C[C@H](NC(=O)[C@@H]1[C@H]2CCC[C@H]2CN1C(=O)[C@H](O)c1ccc(F)cc1)C(=O)COC(F)(F)F` [Compound 404, (1S,3aR,6aS)-2-((R)-2-(4-fluorophenyl)-2-hydroxyacetyl)-N-((S)-3-oxo-1-((S)-2-oxopyrrolidin-3-yl)-4-(trifluoromethoxy)butan-2-yl)octahydrocyclo-penta[c]pyrrole-1-carboxamide] reads under 0.05 µM.

With `O=C1NCC[C@H]1C[C@H](NC(=O)[C@@H]1CC2(CC2)CN1C(=O)C(O)c1cccc(F)c1)C(=O)COC(F)(F)F` (stereo partly drawn) [Compound 405, (6S)-5-(2-(3-fluorophenyl)-2-hydroxyacetyl)-N-((S)-3-oxo-1-((S)-2-oxopyrrolidin-3-yl)-4-(trifluoromethoxy)butan-2-yl)-5-azaspiro[2.4]heptane-6-carboxamide], the EC50 was 0.05 to 0.2 µM. The figure for `O=C1NCC[C@H]1C[C@H](NC(=O)[C@@H]1CC2(CC2)CN1C(=O)C(O)c1ccccc1C(F)(F)F)C(=O)COC(F)(F)F` (stereo partly drawn) [Compound 406, (6S)-5-(2-hydroxy-2-(2-(trifluoromethyl)-phenyl)acetyl)-N-((S)-3-oxo-1-((S)-2-oxopyrrolidin-3-yl)-4-(trifluoromethoxy)butan-2-yl)-5-azaspiro[2.4]heptane-6-carboxamide] is 0.05 to 0.2 µM. Consider `CC1(C)[C@@H]2[C@@H](C(=O)N[C@@H](C[C@@H]3CCNC3=O)C(=O)COC(F)(F)F)N(C(=O)[C@H](O)c3ccccc3F)C[C@@H]21` [Compound 407, (1R,2S,5S)-3-((R)-2-(2-fluorophenyl)-2-hydroxyacetyl)-6,6-dimethyl-N-((S)-3-oxo-1-((S)-2-oxopyrrolidin-3-yl)-4-(trifluoromethoxy)butan-2-yl)-3-azabicyclo[3.1.0]hexane-2-carboxamide], for which the EC50 is under 0.05 µM. With `CC(C)C[C@H](NC(=O)[C@H](O)c1ccccc1F)C(=O)N[C@@H](C[C@@H]1CCNC1=O)C(=O)COC(F)(F)F` [Compound 408, (S)-2-((R)-2-(2-fluorophenyl)-2-hydroxyacetamido)-4-methyl-N-((S)-3-oxo-1-((S)-2-oxopyrrolidin-3-yl)-4-(trifluoromethoxy)butan-2-yl)pentanamide], the EC50 is under 0.05 µM.

Take `O=C1NCC[C@H]1C[C@H](NC(=O)[C@@H]1[C@H]2CCC[C@H]2CN1C(=O)[C@H](O)c1ccccc1F)C(=O)COC(F)(F)F` [Compound 409, (1S,3aR,6aS)-2-((R)-2-(2-fluorophenyl)-2-hydroxyacetyl)-N-((S)-3-oxo-1-((S)-2-oxopyrrolidin-3-yl)-4-(trifluoromethoxy)butan-2-yl)octahydrocyclo-penta[c]pyrrole-1-carboxamide]: the EC50 was under 0.05 µM. The figure for `O=C1NCC[C@H]1C[C@H](NC(=O)[C@@H]1CC2(CC2)CN1C(=O)[C@H](O)c1ccccc1F)C(=O)COC(F)(F)F` [Compound 410, (S)-5-((R)-2-(2-fluorophenyl)-2-hydroxyacetyl)-N-((S)-3-oxo-1-((S)-2-oxopyrrolidin-3-yl)-4-(trifluoromethoxy)butan-2-yl)-5-azaspiro[2.4]heptane-6-carboxamide] is 0.05 to 0.2 µM; for `CC1(C)[C@@H]2[C@@H](C(=O)N[C@@H](C[C@@H]3CCNC3=O)C(=O)COC(F)(F)F)N(C(=O)[C@@H](O)c3ccccc3F)C[C@@H]21` [Compound 411, (1R,2S,5S)-3-((S)-2-(2-fluorophenyl)-2-hydroxyacetyl)-6,6-dimethyl-N-((S)-3-oxo-1-((S)-2-oxopyrrolidin-3-yl)-4-(trifluoromethoxy)butan-2-yl)-3-azabicyclo-[3.1.0]hexane-2-carboxamide] it is under 0.05 µM.

Source of the values: patent US11708348B2, “Protease inhibitors for treatment of coronavirus infections” (The Scripps Research Institute, priority 2021, dated 2023).
